Results from patent US3965105A, “Phenyl-lower-alkylamines” (Sterling Drug Inc., priority 1975, dated 1976).

Key:
[1] = inhibition of carrageenin-induced foot edema test (carrageenin edema, CE); format: in vivo; settings: oral, text: millimoles (μM)/kg.)
Protocol: (§1) Anti-inflammatory activity was determined using (1) the inhibition of carrageenin-induced foot edema test essentially described by […] and (2) a modification of the inhibition of adjuvant-induced arthritis test described by Pierson, J. Chronic Diseases 16, 863 (1963) and Glenn et al., Am. J. Vet. Res. 26, 1180 (1965).
(§2) The phenyl-lower-alkylamines of formula I of the invention have been tested in the carrageenin edema (CE) and adjuvant arthritis (AA) tests and found to have anti-inflammatory activity. Data so-obtained, stated in terms of percent inhibition at a dose expressed in terms of millimoles (μM)/kg.,are given below. All data were obtained on oral administration.

[2] = inhibition of adjuvant-induced arthritis test, modified (adjuvant arthritis, AA); format: in vivo; settings: oral, text: millimoles (μM)/kg.)
Protocol: as §1, §2

CC(CN1CCCCC1CC1CCCCC1)c1ccccc1 (stereo not drawn) [Example 5, 2-cyclohexylmethyl-1-(2-phenylpropyl)piperidine]
CE (% Inhib.) ([1]; dose 0.005 (head: mmol/kg): 0% | CE (% Inhib.) ([1]; dose 0.02 (head: mmol/kg): 16% | CE (% Inhib.) ([1]; dose 0.08 (head: mmol/kg): 13%

CC(C)Cc1ccc(C(C)CN2C(C)CCCC2C)cc1 (stereo not drawn) [Example 3, 2,6-dimethyl-1-[2-(4-isobutylphenyl)propyl]piperidine]
CE (% Inhib.) ([1]; dose 0.08 (head: mmol/kg): 0% | CE (% Inhib.) ([1]; dose 0.324 (head: mmol/kg): 8% | AA (% Inhib.) ([2]; dose 0.324 (head: mmol/kg): 55%

CC(C)Cc1ccc(C(C)CN2CCCCC2CC2CCCCC2)cc1 (stereo not drawn) [Example 1, 2-cyclohexylmethyl-1-[2-(4-isobutylphenyl)propyl]piperidine]
CE (% Inhib.) ([1]; dose 0.08 (head: mmol/kg): 0% | CE (% Inhib.) ([1]; dose 0.324 (head: mmol/kg): 5% | AA (% Inhib.) ([2]; dose 0.324 (head: mmol/kg): 75%

CC(CN1CCCCC1CC1CCCCC1)c1cccc(Br)c1 (stereo not drawn) [Example 4, 2-cyclohexylmethyl-1-[2-(3-bromophenyl)propyl]piperidine]
CE (% Inhib.) ([1]; dose 0.005 (head: mmol/kg): 7% | CE (% Inhib.) ([1]; dose 0.02 (head: mmol/kg): 4% | CE (% Inhib.) ([1]; dose 0.08 (head: mmol/kg): 0%

CCN(CC)CCCC(C)NCC(C)c1ccc(CC(C)C)cc1 (stereo not drawn) [Example 2, N-[2-(4-isobutylphenyl)propyl]-N-[5-(N',N'-diethylamino)-2-pentyl]amine]
CE (% Inhib.) ([1]; dose 0.02 (head: mmol/kg): 0% | CE (% Inhib.) ([1]; dose 0.08 (head: mmol/kg): 17% | CE (% Inhib.) ([1]; dose 0.324 (head: mmol/kg): 39% | AA (% Inhib.) ([2]; dose 0.01 (head: mmol/kg): 32% | AA (% Inhib.) ([2]; dose 0.04 (head: mmol/kg): 34% | AA (% Inhib.) ([2]; dose 0.16 (head: mmol/kg): 63%
